From US12697316B2, “Combination therapy with acetyl-leucine and miglustat” (INTRABIO LTD., priority 2019, dated 2026)

Tests used:
[1] = test system: Npc1^−/− mice; assay: Lipid storage (GSLs, sphingoid bases) in forebrain and cerebellum of Npc1−/− mice; assay type: in vivo, mouse; design: concentration or dose not given beside the values; conditions: Npc1−/− mice treated from 3 weeks, 59 days of age
Procedure: (§1) ADLL and enantiomers (ADLL: Molekula #73891210, ALL: Sigma Aldrich #441511, ADL: Sigma #A0876) were administered as dry admix in powdered mouse diet (PicoLab Rodent Diet 20/5053, LabDiet) at a dose of 0.1 g/kg/day for in vivo studies. Treatment groups for in vivo study consisted of at least 5 mice per group. In vitro studies were conducted with each compound dissolved in PBS to generate a 50 mM stock solution and diluted to a 1 mM working concentration in media (DMEM High Glucose-Gibco #10566016).
Biochemical and immunohistochemical analyses. Mice were saline perfused under terminal anaesthesia. Tissues for biochemical analysis were snap-frozen on ice-cold isopentane. For immunofluorescent staining, tissues were perfused with 4% PFA followed by PBS and kept in 4% PFA for 24h and stored in PBS containing 20% sucrose longer term. Brains were cut parasagitally (20 micron sections) and stored in 30% ethylene glycol, 30% glycerol 0.1 M sodium phosphate buffer (pH 7.4) at −20° C. Biochemical analysis was performed on water-homogenised tissues (50 mg/ml) and protein content was determined using a BCA protein assay (Thermo Fisher #23227) according to the manufacturer's instructions.
(§2) Sphingoid Base Measurements: Sphingoid bases (sphingosine and sphinganine) were extracted from 100 uL tissue homogenates in 500 uL of chloroform:methanol (1:2v/v) followed by sonication for 10 minutes at room temperature. Subsequently, 1 M 500-uL sodium chloride, 500 uL chloroform, and 3 M 100 uL sodium hydroxide were added to the samples, and vortexed every five minutes for 15 minutes at room temperature. Homogenates were centrifuged (13,000 g for 10 minutes) and the lower organic phase retained. Sphingoid bases were purified from the samples by pre-equilibrating SPA-NH2 columns with 2×1 mL chloroform followed by sample elution with 3×300 ul acetone. The samples were dried under nitrogen. Lipids were resuspended in 50 uL pre-warmed ethanol (37° C.) and 50 uL OPA labelling solution (1 mg OPA/20 uL Ethanol/1 uL 2-mercaptoethanol; dilution 1:2000 in 3% boric acid pH 10.5) was added. Samples were kept at room temperature in the dark for 20 minutes and vortexed every 10 minutes. Samples were buffered with 100 uL methanol: 5 mM Tris pH 7 (9:1) and centrifuged at 5,000 g for 2 minutes. Supernatants (150 uL) were loaded onto a reverse phase HPLC. Chromatography was carried out using a mobile phase of 85% acetonitrile/15% H2O at a flow rate of 1.0 ml/min. The orthophthaldehyde-labelled derivatives were monitored at an excitation wavelength of 340 nm and an emission wavelength of 450 nm. Quantification of trace peak area was carried out using EZChrom Elite software v3.2.1.
Glycosphingolipid measurements: Glycosphingolipids were extracted and measured by NP-HPLC according to published methods. Tissue homogenates in chloroform/methanol (C:M) (1:2 v/v) overnight at 4° C. The mixture was centrifuged (3000 rpm/10 min) and 1 mL chloroform and 1 mL PBS were added to the supernatant and centrifuged (3000 rpm/10 min). The lower phase was dried under N2, resuspended in 50 uL C:M 1:3 v/v and combined with the upper phase. Subsequently, GSLs were recovered using C18 Isolute columns (100 mg) (Biotage) pre-equilibrated with 4×1 mL MeOH and 2×1 mL H2O. Samples were washed 3×1 mL H2O and eluted with 1 mL C:M 98:2, 2×1 mL C:M 1:3, 1 mL MeOH. The column eluate was dried under N2, resuspended in 100 uL C:M 2:1, dried again under N2 and resuspended in ceramide glycanase (CGase) buffer (50 mM sodium acetate pH 5.5, 1 mg/mL sodium taurodeoxycholate). 50 mU CGase was added, and samples incubated at 37° C. overnight. Released oligosaccharides were anthranilic acid (2-AA) labelled and purified by mixing with 1 mL Acetonitrile: H2O 97:3 and added to Discovery DPA-6S columns (SUPELCO, # 52625-U) pre-equilibrated with 1 mL acetonitrile, 2×1 mL H2O, and 2×1 mL acetonitrile. Columns were washed with 2×1 mL Acetonitrile: H2O 95:5 v/v, and eluted in 2×0.75 mL H2O. […]

[2] = test system: Npc1^−/− Chinese Hamster Ovary (CHO) cells; assay: Sphingosine, total GSL and cholesterol content in NPC1 null CHO cells; assay type: cell-based; conditions: 1 mM, 72 hours
Procedure: Wild type and NPC1 null Chinese Hamster Ovary (CHO) cells were kindly provided by Chris Wassif (NIH).
as §1, §2
Glycosphingolipid measurements: Glycosphingolipids were extracted and measured by NP-HPLC according to published methods. Tissue homogenates in chloroform/methanol (C:M) (1:2 v/v) overnight at 4° C. The mixture was centrifuged (3000 rpm/10 min) and 1 mL chloroform and 1 mL PBS were added to the supernatant and centrifuged (3000 rpm/10 min). The lower phase was dried under N2, resuspended in 50 uL C:M 1:3 v/v and combined with the upper phase. Subsequently, GSLs were recovered using C18 Isolute columns (100 mg) (Biotage) pre-equilibrated with 4×1 mL MeOH and 2×1 mL H2O. Samples were washed 3×1 mL H2O and eluted with 1 mL C:M 98:2, 2×1 mL C:M 1:3, 1 mL MeOH. The column eluate was dried under N2, resuspended in 100 uL C:M 2:1, dried again under N2 and resuspended in ceramide glycanase (CGase) buffer (50 mM sodium acetate pH 5.5, 1 mg/mL sodium taurodeoxycholate). 50 mU CGase was added, and samples incubated at 37° C. overnight. Released oligosaccharides were anthranilic acid (2-AA) labelled and purified by mixing with 1 mL Acetonitrile: H2O 97:3 and added to Discovery DPA-6S columns (SUPELCO, # 52625-U) pre-equilibrated with 1 mL acetonitrile, 2×1 mL H2O, and 2×1 mL acetonitrile. Columns were washed with 2×1 mL Acetonitrile: H2O 95:5 v/v, and eluted in 2×0.75 mL H2O. Samples were loaded 30:70 H2O: MeCN (v/v) for normal phase HPLC. Solvent A was acetonitrile, solvent B was H2O, and solvent C was 100 mM […] (pH 3.85) in H2O. Separation was carried out at 30° C. using Waters Alliance 2695 separation module, excitation 360, emission 425 using Waters 2475 Fluorescence detector.
Cholesterol measurements: Cholesterol was measured with the Amplex Red kit (Molecular Probes) according to the manufacturer's instructions. Briefly, cell and tissue homogenates in 100 uL mQ water were Folch extracted and dried down under nitrogen. […]

## CC(=O)N[C@H](CC(C)C)C(=O)O [ADL, N-acetyl-D-leucine]
[1]
  reduction of sphinganine in cerebellum: 42.3%
  reduction of sphinganine levels in forebrain: 18.2%
[2]
  reduction of cholesterol content: 14%
  reduction of sphingosine levels: 14%
  reduction of total GSL levels: 22%

## CC(=O)N[C@@H](CC(C)C)C(=O)O [ALL, N-acetyl-L-leucine]
[1]
  reduction of GA1 in cerebellum: 23.5%
  reduction of GA2 in cerebellum: 23.8%
  reduction of GM1a in forebrain: 20.1%
  reduction of GM2 in forebrain: 19.6%
[2]
  reduction of cholesterol content: 13%
  reduction of sphingosine levels: 29%
  reduction of total GSL levels: 25%

## CC(=O)NC(CC(C)C)C(=O)O (racemic) [ADLL, N-acetyl-DL-leucine]
[1]
  reduction of GA2 in cerebellum: 21.3%
  reduction of sphinganine levels in forebrain: 13.5%
[2]
  reduction of cholesterol content: 18%
  reduction of sphingosine levels: 22%
  reduction of total GSL levels: 26%
